Test results from patent EP1285920A1, “C10 Ester sustituted taxanes as antitumor agents” (Florida State University Research Foundation, Inc., priority 2001, dated 2003).
Read-outs that look alike come from different tables or passages of the source.

Columns and labels:
HCT116 = test: In Vitro cytotoxicity measured by the cell colony formation assay; assay type: cell-based, human; conditions: Homo sapiens, HCT-116; read-out: IN VITRO ID 50 HCT116
Summary of the method: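 Four hundred cells per dish in McCoy's 5a medium with 10% FBS were allowed to attach for 5 h at 37 °C. They were then exposed to compound for 72 h at 37 °C, added as a 10× stock made fresh in medium. After HBSS rinsing and refeeding, colonies were counted after 7 days.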

HCT116 carcinoma = tested on: HCT116 carcinoma
Procedure: Antitumor compounds were formulated for an i.v. dosing regime and were prepared in the following vehicle: 5% ethanol, 5% Cremophor and 90% isotonic saline.
(§1) The antitumor compounds were given intravenously in a single maximum tolerated dose (MTD) appropriate for each compound. […] The MTDs for the antitumor compounds were calculated from earlier single dose data for mice receiving i.v. administration of these compounds. All vehicle control animals in the split dosing regimes were dosed twice intravenously with half of the total volume being given separated by one hour. The study was terminated on Day 60.
A complete response is obtained if the tumor is not palpable at the end of the study.

MX-1 carcinoma = tested on: MX-1 carcinoma
Procedure: Thirteen antitumor compounds were formulated for an i.v. dosing regime (single i.v. bolus, qd x 1 schedule) prepared in the following vehicle: 5% ethanol, 5% Cremophor and 90% isotonic saline.
as §1, with “half” for “half of”
A complete response is obtained if the tumor is not palpable at the end of the study. […]

A2780 ovarian carcinoma = tested on: A2780 ovarian carcinoma
Procedure: Dosing was initiated on Day 1. […] Taxotere was given i.v. on a qd x 1 schedule at a dose of 70 mg/kg. […] The study was terminated on Day 60. Treatment groups are detailed in Table 7.

VM46 colon carcinoma = conditions: for Complete Response / Partial Response / Stable Disease / Survivors: Day 64
Procedure: Dosing was initiated on Day 1. […] Taxotere was given i.v. at a dose of 70 mg/kg on a qd x 1 schedule.

A375 melanoma = conditions: for survival extension compared to Group 1 controls: i.v. qd x 1; for MDS (n): mean days of survival until neoplasm reached 2.0 g, terminated Day 60; for MDS (n) / Toxic Deaths / Complete Response / Partial Response / Stable Disease / Survivors / Mean Score: i.v. qd x 1 at estimated MTD (Taxol 24 mg/kg, Taxotere 70 mg/kg), 6 mice/group (Taxotere 7); for Toxic Deaths / Complete Response / Partial Response / Stable Disease / Survivors: number of mice; for Complete Response / Partial Response / Stable Disease / Survivors: Day 60; for Mean Score: tumor scoring system
Procedure: Dosing was initiated on Day 1. […] Taxotere was given i.v. on a qd x 1 schedule at a dose of 70 mg/kg. […] The study was terminated on Day 60. Treatment groups are detailed in Table 9.

DU145 prostate carcinoma = tested on: DU145 prostate carcinoma
From the text: Dosing was initiated on Day 1. […] Treatment groups are detailed in Table 5.

[1] = tested on: Panc-1 pancreatic carcinoma; test: In vivo evaluation against Panc-1 human pancreatic carcinoma (Example 17)
Procedure: The dosing volume was 0.3 ml per 20 g mouse.
Female NCr-nude mice were implanted subcutaneously with 1 mm^3 Panc-1 pancreatic carcinoma fragments in the flank and sorted into treatment groups of six mice each. […] Dosing was initiated on Day 1. The antitumor compounds were given i.v. at an estimated maximum tolerated dose (MTD) appropriate for each agent on a qd x 1 schedule (single administration of compound). […] The vehicle was administered i.v. to control mice in Group 1 on the qd x 1 schedule. The study was terminated on Day 60.
The mean days of survival is the number of days after which a neoplasm reached a size of 1.5 g and the animal was euthanized. A complete response is obtained if the tumor shrinks to a size smaller than its size on Day 1 of the study.

[2] = number of mice, i.v. qd x 1 at estimated MTD (Taxol 24 mg/kg, Taxotere 70 mg/kg, 0983 72.6 mg/kg), 5 mice/group (Taxotere 6)
[3] = number of mice, i.v. qd x 1 at estimated MTD (Taxol 24 mg/kg, Taxotere 70 mg/kg, 0983 72.6 mg/kg), 5 mice/group (Taxotere 6), Day 60
[4] = number of mice, i.v. qd x 1, mg/kg: Taxol 24, 0499 77, 0503 72.6, 0670 123.1, 0706 107.6, 0838 72.6, 0854 46.6, 0983 67.4, Taxotere 70, 6 mice/group
[5] = number of 5 mice, i.v. qd x 1 at estimated MTD (Taxol 24 mg/kg split), Day 91
[6] = number of mice, i.v. qd x 1, mg/kg: Taxol 36, 0499 77, 0503 72.6, 0670 123.1, 0706 107.6, 0838 72.6, 0854 76.9, 6 mice/group, Day 60

## CCCC(=O)O[C@H]1C(=O)[C@@]2(C)[C@H]([C@H](OC(=O)c3ccccc3)[C@]3(O)C[C@H](OC(=O)[C@H](O)[C@@H](NC(=O)OC(C)(C)C)c4ccco4)C(C)=C1C3(C)C)[C@]1(OC(C)=O)CO[C@@H]1C[C@@H]2O [Compound 0983]
HCT116
  IC50: < 1000 pM
HCT116 carcinoma; HCT116, single i.v. MTD, Days 6-10
  group mean weight losses: over 20%
HCT116 carcinoma; iv
  Partial Response: 1
HCT116 carcinoma; iv, 1440 h
  Complete Response: 2
  Mean Score: 5.8 ± 2.4
  Stable Disease: 0
HCT116 carcinoma; number of 5 mice, i.v. qd x 1 at MTD, Day 60, doses as in E3
  Survivors: 3
HCT116 carcinoma; number of 5 mice, i.v. qd x 1 at MTD, Day 60, mg/kg: Taxol 36 (split doses), 0503 72.6, 0536 49, 0663 159, 0670 123, 0687 159, 0706 108, 0908 159, 0947 76.9, 0951 72.6, 0983 72.6, 0999 49, 1003 49, 1011 108
  Toxic Deaths: 2
MX-1 carcinoma; iv
  Partial Response: 0
MX-1 carcinoma; iv, 1440 h
  Complete Response: 6
  Mean Score: 10 ± 0
  Stable Disease: 0
MX-1 carcinoma; number of 6 mice, i.v. qd x 1 at MTD, Day 60, doses as in E17
  Survivors: 6
MX-1 carcinoma; number of 6 mice, i.v. qd x 1 at MTD, Day 60, mg/kg: Taxol 36 (split dose), 0503 72.6, 0536 49, 0663 159, 0670 123, 0687 159, 0706 108, 0908 159, 0947 76.9, 0951 72.6, 0983 67.4, 0999 49, 1003 49, 1011 108
  Toxic Deaths: 0
A2780 ovarian carcinoma; iv, 72.6 mg/kg
  Mean Score: 0 ± 0
A2780 ovarian carcinoma; iv, 72.6 mg/kg, 1440 h
  Complete Response: 0
  Partial Respons: 0
  Stable Disease: 0
A2780 ovarian carcinoma; [2]
  Toxic Deaths: 5
A2780 ovarian carcinoma; [3]
  Survivors: 0
VM46 colon carcinoma; VM46, i.v. qd x 1 at estimated MTD
  response rate: 0%
VM46 colon carcinoma; iv
  Mean Score: 1.7 ± 0.8
VM46 colon carcinoma; iv, 1536 h
  MDS (n): 56.0 ± 6.8 (2) days
VM46 colon carcinoma; [4]
  Toxic Deaths: 3
  Complete Response: 0
  Partial Response: 0
  Stable Disease: 1
  Survivors: 1

## CC(=O)O[C@@]12CO[C@@H]1C[C@H](O)[C@@]1(C)C(=O)[C@H](O)C3=C(C)[C@@H](OC(=O)[C@H](O)[C@@H](NC(=O)OC(C)(C)C)c4ccccc4)C[C@@](O)([C@@H](OC(=O)c4ccccc4)[C@H]21)C3(C)C [Taxotere, docetaxel, reference compound]
HCT116
  IC50: 600 pM
A2780 ovarian carcinoma; A2780, i.v. qd x 1
  antitumor activity: more active than Taxol
  survival extension compared to Group 1 controls: 134%
A2780 ovarian carcinoma; A2780, i.v. qd x 1 (compounds estimated MTD; Taxol 24 mg/kg split; Taxotere 70 mg/kg), days until tumor 2.0 g, ended Day 60
  MDS: 27.4 days
A2780 ovarian carcinoma; mean days of survival until neoplasm reached 2.0 g, i.v. qd x 1 at estimated MTD (Taxol 24 mg/kg, Taxotere 70 mg/kg, 0983 72.6 mg/kg), 5 mice/group (Taxotere 6), terminated Day 60
  MDS (n): 27.4 ± 3.5 (6) days
A2780 ovarian carcinoma; [2]
  Toxic Deaths: 0
A2780 ovarian carcinoma; [3]
  Complete Response: 0
  Partial Respons: 0
  Stable Disease: 0
  Survivors: 0
A2780 ovarian carcinoma; tumor scoring system, i.v. qd x 1 at estimated MTD (Taxol 24 mg/kg, Taxotere 70 mg/kg, 0983 72.6 mg/kg), 5 mice/group (Taxotere 6)
  Mean Score: 2.5 ± 0.3
A375 melanoma; A375
  survival extension compared to Group 1 controls: 49%
A375 melanoma; A375, i.v. qd x 1 (Taxol 24 mg/kg split; Taxotere 70 mg/kg), days until tumor 2.0 g, ended Day 60
  MDS: 21.5 days
A375 melanoma
  MDS (n): 21.5 ± 0.5 (7) days
  Toxic Deaths: 0
  Complete Response: 0
  Partial Response: 0
  Stable Disease: 0
  Survivors: 0
  Mean Score: 2 ± 0
VM46 colon carcinoma; VM46, i.v. qd x 1 (Taxol 24 mg/kg split; Taxotere 70 mg/kg), days until tumor 1.5 g
  MDS: 45.3 days
VM46 colon carcinoma; mean days of survival until neoplasm reached 1.5 g, i.v. qd x 1, mg/kg: Taxol 24, 0499 77, 0503 72.6, 0670 123.1, 0706 107.6, 0838 72.6, 0854 46.6, 0983 67.4, Taxotere 70, 6 mice/group, terminated Day 64
  MDS (n): 45.3 ± 3.6 (6) days
VM46 colon carcinoma; [4]
  Toxic Deaths: 0
  Complete Response: 0
  Partial Response: 0
  Stable Disease: 0
  Survivors: 0
VM46 colon carcinoma; tumor scoring system, i.v. qd x 1, mg/kg: Taxol 24, 0499 77, 0503 72.6, 0670 123.1, 0706 107.6, 0838 72.6, 0854 46.6, 0983 67.4, Taxotere 70, 6 mice/group
  Mean Score: 2 ± 0

## CC(=O)O[C@@]12CO[C@@H]1C[C@H](O)[C@@]1(C)C(=O)[C@H](OC(=O)C3CC3)C3=C(C)[C@@H](OC(=O)[C@H](O)[C@H](C=C(C)C)NC(=O)OC(C)(C)C)C[C@@](O)([C@@H](OC(=O)c4ccccc4)[C@H]21)C3(C)C [Compound 0838]
DU145 prostate carcinoma; DU145, i.v. qd x 1
  antitumor activity: active
DU145 prostate carcinoma; DU145, i.v. qd x 1, five mice per group
  complete responses: 2
DU145 prostate carcinoma; i.v. qd x 1 at estimated MTD (Taxol 24 mg/kg split), 5 mice/group, Day 91
  Mean Score: 7 ± 1.5
DU145 prostate carcinoma; number of 5 mice, tumor did not reach 1.5 g by end of study, i.v. qd x 1 at estimated MTD (Taxol 24 mg/kg split), Day 91
  Stable Disease: 1
DU145 prostate carcinoma; number of 5 mice, i.v. qd x 1 at estimated MTD (Taxol 24 mg/kg as two split doses), Day 91
  Toxic Deaths: 0
DU145 prostate carcinoma; [5]
  Complete Response: 2
  Partial Response: 1
  Survivors: 4
A375 melanoma; A375
  survival extension compared to Group 1 controls: 133%
A375 melanoma
  MDS (n): 33.5 ± 3.4 (5) days
  Toxic Deaths: 0
  Complete Response: 1
  Partial Response: 0
  Stable Disease: 0
  Survivors: 1
  Mean Score: 3.8 ± 1.2
VM46 colon carcinoma; VM46, i.v. qd x 1, six mice per group
  Toxic Deaths: no toxic deaths
VM46 colon carcinoma; [4]
  Toxic Deaths: 0
  Complete Response: 0
  Partial Response: 1
  Stable Disease: 3
  Survivors: 4
[1]; Panc-1 (Example 17), i.v. qd x 1 (compounds estimated MTD; Taxol 36 mg/kg split), days until tumor 1.5 g, ended Day 60
  MDS: 47 to 56 days
[1]; Panc-1 (Example 17), i.v. qd x 1, six mice per group
  Toxic Deaths: One
[1]; mean days of survival until neoplasm reached 1.5 g, i.v. qd x 1, mg/kg: Taxol 36, 0499 77, 0503 72.6, 0670 123.1, 0706 107.6, 0838 72.6, 0854 76.9, 6 mice/group, terminated Day 60
  MDS (n): 54.2 ± 0.9 (2) days
[1]; number of mice, i.v. qd x 1, mg/kg: Taxol 36, 0499 77, 0503 72.6, 0670 123.1, 0706 107.6, 0838 72.6, 0854 76.9, 6 mice/group
  Toxic Deaths: 1
[1]; [6]
  Complete Response: 0
  Partial Response: 2
  Stable Disease: 3
  Survivors: 3
[1]; tumor scoring system, i.v. qd x 1, mg/kg: Taxol 36, 0499 77, 0503 72.6, 0670 123.1, 0706 107.6, 0838 72.6, 0854 76.9, 6 mice/group
  Mean Score: 3.6 ± 1.1
